# Test results as given in US10222381B2, “Water-soluble peptide fluorescence material” (NATIONAL CHIAO TUNG UNIVERSITY, priority 2015, dated 2019).
# Non-standard residues stand in square brackets, D forms with d. Residues, ends and D or L forms follow the SMILES beside them. ξ: configuration not given here. *: point of attachment. Acetyl(1,8-naphthalimido) = O=C1c2cccc3cccc(c23)C(=O)N1CC(=O)*; X2 = O=C1c2cccc3c(N4CCCCC4)ccc(c23)C(=O)N1CC(=O)*; ξY = NC(Cc1ccc(O)cc1)C(=O)O; ξE = NC(CCC(=O)O)C(=O)O
# Columns and labels:
# [1] = Fluorescence in co-solvents of water and dimethyl sulfoxide (aggregation-induced emission); type: physicochemical; settings: for fluorescence intensity with increase of the volume ratio of water: aggregation-induced emission; for color of observed fluorescence / emission wavelength: water/dimethyl sulfoxide co-solvent
# From the text: Continuing in FIG. 4, which illustrates a fluorescence intensity and an emission wavelength of the water-soluble peptide fluorescence material of formula (III-1) in co-solvents having different proportions of water and dimethyl sulfoxide. In Experimental Example 401, 402, 403, 404, 405, 406, 407, 408, 409, 410 and 411, water respectively has 0, 10, 20, 30, 40, 50, 60, 70, 80, 90 and 100% of a total volume of the co-solvent. […] As such, no significant fluorescence marker is shown, so it is difficult to observe apparent fluorescence visually. […] Given the above, the fluorescence intensity of the water-soluble peptide fluorescence material of formula (III-1) is increased corresponding to the increase of the volume ratio of water, which is also referred as aggregation-induced emission (AIE). In addition, the water-soluble peptide fluorescence material of formula (III-1) has the emission wavelength of about 400 nm, so the observed fluorescence has a color of blue violet.
# Continuing in FIG. 9, which illustrates a fluorescence intensity and an emission wavelength of the water-soluble peptide fluorescence material of formula (III-23) in co-solvents having different proportions of water and dimethyl sulfoxide. In Experimental Examples 901, 902, 903, 904, 905, 906, 907, 908, 909 and 910, water respectively has 0, 10, 20, 30, 40, 50, 60, 70, 80 and 90% of a total volume of the co-solvent. […] Given the above, the fluorescence intensity of the water-soluble peptide fluorescence material of formula (III-23) is increased corresponding to the increase of the volume ratio of water and has a phenomenon of aggregation-induced emission in water. In addition, the water-soluble peptide fluorescence material of formula (III-23) has the emission wavelength of about 550 nm, so the observed fluorescence has a color of green.
# FIG. 12 illustrates a fluorescence intensity and an emission wavelength of the water-soluble peptide fluorescence material of formula (III-28) in co-solvents having different proportions of water and dimethyl sulfoxide. In Experimental Example 1201, 1202, 1203, 1204, 1205, 1206, 1207, 1208, 1209, 1210 and 1211, water respectively has 0, 10, 20, 30, 40, 50, 60, 70, 80, 90 and 99% of a total volume of the co-solvent. […] As such, no significant fluorescence marker is shown, so it is difficult to observe apparent fluorescence visually. […] Given the above, the fluorescence intensity of the water-soluble peptide fluorescence material of formula (III-28) is increased corresponding to the increase of the volume ratio of water and has a phenomenon of aggregation-induced emission in water. In addition, the water-soluble peptide fluorescence material of formula (III-28) has the emission wavelength of about 400 nm, so the observed fluorescence has a color of violet. FIG. 13 depicts a ratio of the fluorescence intensity between Experimental Examples 1202 to 1211 and Experimental Example 1201, at the emission wavelength of 400 nm.
# FIG. 15 illustrates a fluorescence intensity and an emission wavelength of the water-soluble peptide fluorescence material of formula (III-30) in co-solvents having different proportions of water and dimethyl sulfoxide. In Experimental Example 1501, 1502, 1503, 1504, 1505, 1506, 1507, 1508, 1509, 1510 and 1511, water respectively has 0, 10, 20, 30, 40, 50, 60, 70, 80, 90 and 100% of a total volume of the co-solvent. […] As such, no significant fluorescence marker is shown, so it is difficult to observe apparent fluorescence visually. […] Accordingly, the fluorescence intensity of the water-soluble peptide fluorescence material of formula (III-30) is increased corresponding to the increase of the volume ratio of water and has a phenomenon of aggregation-induced emission in water. In addition, the water-soluble peptide fluorescence material of formula (III-30) has the emission wavelength of about 400 to 425 nm, so the observed fluorescence has a color of blue violet. […]
# [2] = Fluorescence intensity and emission wavelength at different pH values; type: physicochemical; settings: for color of fluorescence / emission peak: pH 5; for pH value of the highest fluorescence intensity: pH 10 to 3 tested; for fluorescence intensity: pH 10 to 6
# From the text: In Experimental Examples 210, 220, 230, 240, 250, 260, 270 and 280, the above water-soluble peptide fluorescence material is respectively placed in environments having a pH value of 10, 9, 8, 7, 6, 5, 4 and 3 for testing. In Experimental Examples 210 to 230, the water-soluble peptide fluorescence material is respectively placed in environments having the pH value of 10, 9 and 8.
# Continuing in FIG. 5, which illustrates a fluorescence intensity and an emission wavelength of the water-soluble peptide fluorescence material of formula (III-10) at different pH values. In Experimental Examples 510, 520, 530, 540, 550, 560, 570 and 580, the water-soluble peptide fluorescence material of formula (III-10) is respectively placed in environments having a pH value of 10, 9, 8, 7, 6, 5, 4 and 3 for testing. In Experimental Examples 510 to 560, the water-soluble peptide fluorescence material is placed in environments having the pH value of 10 to 5, and two emission peaks are shown in FIG. 5. […] Then, the pH value is further decrease to 4 (Experimental Example 570) and 3 (Experimental Example 580), and only the emission peak at about 400 nm is remained, so the observed fluorescence has a color of purple in Experimental Examples 570 and 580. Therefore, the water-soluble peptide fluorescence material of formula (III-10) is able to detect and mark locations of acidic cells by change of the color.
# Continuing in FIG. 7, which illustrates a fluorescence intensity and an emission wavelength of the water-soluble peptide fluorescence material of formula (III-21) at different pH values. In Experimental Examples 710, 720, 730, 740, 750, 760, 770 and 780, the water-soluble peptide fluorescence material of formula (III-21) is respectively placed in environments having a pH value of 10, 9, 8, 7, 6, 5, 4 and 3 for testing. In Experimental Examples 710 to 750, the water-soluble peptide fluorescence material is placed in environments having the pH value of 10 to 6. […] However, the fluorescence intensity of Experimental Examples 780 is decreased when the pH value is decreased from 4 to 3.
# Continuing in FIG. 8, which illustrates a fluorescence intensity and an emission wavelength of the water-soluble peptide fluorescence material of formula (III-22) at different pH values. In Experimental Examples 810, 820, 830, 840, 850, 860, 870 and 880, the water-soluble peptide fluorescence material of formula (III-22) is respectively placed in environments having a pH value of 10, 9, 8, 7, 6, 5, 4 and 3 for testing. In Experimental Examples 810 to 850, the water-soluble peptide fluorescence material is respectively placed in environments having the pH value of 10 to 6. […] In addition, the fluorescence intensity of Experimental Example 860 (pH=5) is 90 times of the fluorescence intensity of Experimental Example 810 […], which represents that the water-soluble peptide fluorescence material has obvious light-emitting interval and easily to identify and detect positions of the acidic cells.
# FIG. 10 illustrates a fluorescence intensity and an emission wavelength of the water-soluble peptide fluorescence material of formula (III-23) at different pH values. In Experimental Examples 1010, 1020, 1030, 1040, 1050, 1060, 1070 and 1080, the water-soluble peptide fluorescence material of formula (III-23) is respectively placed in environments having a pH value of 10, 9, 8, 7, 6, 5, 4 and 3 for testing. In Experimental Examples 1010 to 1050, the water-soluble peptide fluorescence material is respectively placed in environments having the pH value of 10 to 6. […] The water-soluble peptide fluorescence material not only provides obvious marker, but also achieves the same effect of the fluorescence at a low concentration, and thereby reduces the costs.
# FIG. 11 illustrates a fluorescence intensity and an emission wavelength of the water-soluble peptide fluorescence material of formula (III-27) at different pH values. […]
fluorescence intensity with increase of the volume ratio of water [1],fluorescence intensity ([1]; water 90%) [fluorescent units],color of observed fluorescence [1],emission wavelength [1],color of fluorescence [2],emission peak [2],fluorescence intensity [2],change of fluorescence intensity ([2]; pH decreased to 5),change of fluorescence intensity ([2]; pH decreased to 4 and 3),SMILES,further results
increased,100,blue violet,about 400 nm,–,–,–,–,–,O=C(CN1C(=O)c2cccc3cccc(c23)C1=O)NC(Cc1ccccc1)C(=O)O (centres unmarked) [III-1],fluorescence intensity ([1]; water 0 to 70% of co-solvent volume): low fluorescence intensity; fluorescence intensity ([1]; water 80%): 50 fluorescent units; fluorescence intensity ([1]; water 100%): about 650 fluorescent units
–,–,–,–,–,–,–,–,–,O=C(CN1C(=O)c2cccc3cccc(c23)C1=O)NCC(=O)NC(Cc1ccccc1)C(=O)O (centres unmarked) [III-10],color of observed fluorescence ([2]; pH 4 and 3): purple; emission peak (only one remained) ([2]; pH 4 and 3): about 400 nm; color of observed fluorescence ([2]; pH 10 to 5): mixed light of green light and purple light; emission peak (first) ([2]; pH 10 to 5): about 400 nm; emission peak (other) ([2]; pH 10 to 5): about 500 nm
–,–,–,–,green,about 550 nm,low fluorescence intensities,significantly increased,–,O=C(O)CCC(NC(=O)[C@H](Cc1ccccc1)NC(=O)CN1C(=O)c2cccc3c(N4CCCCC4)ccc(c23)C1=O)C(=O)O (some centres unmarked) [III-21],pH value of the highest fluorescence intensity [2]: 4; change of fluorescence intensity ([2]; pH decreased from 4 to 3): decreased; change of fluorescence intensity ([2]; pH decreased from 5 to 4): further increased
–,–,–,–,yellow,about 575 nm,low fluorescence intensities,significantly increased,–,O=C(O)C[C@H](NC(=O)[C@H](CC(=O)O)NC(=O)[C@H](Cc1ccccc1)NC(=O)CN1C(=O)c2cccc3c(N4CCCCC4)ccc(c23)C1=O)C(=O)O [III-22],ratio of fluorescence intensity Experimental Example 860 (pH=5) to Experimental Example 810 (pH=1) [2]: 90 times; pH value of the highest fluorescence intensity [2]: 5; change of fluorescence intensity ([2]; pH decreased from 4 to 3): slightly increased; change of fluorescence intensity ([2]; pH decreased from 5 to 4): decreased
increased,–,green,about 550 nm,green,about 525 nm,low fluorescence intensities,significantly increased,slightly increased,O=C(O)C[C@H](NC(=O)[C@H](CC(=O)O)NC(=O)[C@H](Cc1ccccc1)NC(=O)CN1C(=O)c2cccc3c(N4CCCCC4)ccc(c23)C1=O)C(=O)O [III-23],"fluorescence intensity ([1]; water 90% (Experimental Example 910), water 0 to 90% tested): highest fluorescence intensity"
–,–,–,–,green,about 525 nm,low fluorescence intensities,significantly increased,significantly increased,O=C(O)CCC(NC(=O)C(CCC(=O)O)NC(=O)C(CCC(=O)O)NC(=O)[C@H](Cc1ccccc1)NC(=O)CN1C(=O)c2cccc3c(N4CCCCC4)ccc(c23)C1=O)C(=O)O (some centres unmarked) [III-27] (X2-F[ξE][ξE][ξE]-OH),–
increased,150,violet,about 400 nm,purple,about 400 nm,low fluorescence intensities,significantly increased,significantly increased,"C[C@H](NC(=O)[C@H](CCC(=O)O)NC(=O)CNC(=O)[C@H](CC(=O)O)NC(=O)[C@H](Cc1ccccc1)NC(=O)CN1C(=O)c2cccc3cccc(c23)C1=O)C(=O)O [III-28] ({Acetyl(1,8-naphthalimido)}-FDGEA-OH)",ratio of fluorescence intensity Experimental Example 1211 (99% water) to 1201 (0% water) ([1]; emission wavelength of 400 nm): 225 times; fluorescence intensity ([1]; water 0 to 80%): low fluorescence intensity; fluorescence intensity ([1]; water 99%): about 110 fluorescent units
increased,200,blue violet,–,–,–,–,–,–,"O=C(CNC(=O)CNC(=O)CN1C(=O)c2cccc3cccc(c23)C1=O)NCC(=O)NCC(=O)NCC(=O)NC(Cc1ccc(O)cc1)C(=O)O (centres unmarked) [III-30] ({Acetyl(1,8-naphthalimido)}-GGGGG[ξY]-OH)",ratio of fluorescence intensity Experimental Example 1511 to 1501 (0% water) ([1]; emission wavelength of 410 nm): 100 times; fluorescence intensity ([1]; water 0 to 80%): lower than 100 fluorescent units; fluorescence intensity ([1]; water 99%): about 700 fluorescent units
